Columns and labels:
ΔERGIC-53 HCT116 cells = test: EPO secretion level (ELISA) from ERGIC-53 KO HCT116 cells; assay type: cell-based
From the text: The guide RNAs (gRNAs) flanking the target enhancer regions for ERGIC-53 and MCFD2 were designed using ToolGen’s dRGEN synthesis service (Seoul, South Korea). The target DNA sequences of the gRNAs used in the present study were as follows: for MCFD2 deletion, […], and for ERGIC-53 deletion, […]. The gRNA expression plasmids (pRGEN-U6-sgRNA) were purchased from ToolGen. To generate the KO cells of MCFD2 or ERGIC-53, individual gRNA plasmids and a plasmid-expressing Cas9-green fluorescent protein (GFP) (Addgene, catalog #44719) were transiently transfected into HCT116 cells, which are diploid cells suitable for genome editing using the CRISPR/Cas9 method, in a six-well plate using polyethylenimine “Max” (Polysciences Inc., Warrington, PA) and a Cas9:gRNA molar ratio of 1:5 as described previously. At 48 h post transfection, cells with high GFP expression were identified using fluorescence-activated cell sorting with the BD FACSAria II cell sorter (BD Biosciences, San Jose, CA). For knocking out ERGL in the wild-type and ERGIC-53-KO cells, the Guide-it CRISPR/Cas9 System (green/red) (Takara Bio Inc., Kusatsu, Japan) was used for the cloning and expression of target single gRNAs, whose target ERGL DNA sequences were […] and […]. The two constructed pGuide-it Vectors (green and red) were transiently transfected into HCT116 cells. At 48 h post transfection, cells with high ZsGreen1 and tdTomato expression were identified using fluorescence-activated cell sorting. Sorted cells were plated into individual wells of a 96-well plate and then re-plated as single cells in 6 cm dishes. The deletions in the clones were confirmed by polymerase chain reaction and sequencing analysis (Supplementary Figs. 8, 9, 10, and 11).
For expression of the FVIII and FV full-length and deletion mutant proteins in mammalian cells, the codon-optimized FVIII and FV genes were inserted into the p3XFLAG-CMV-14 Expression Vector and p3XFLAG-CMV-9 Expression Vector, respectively (Sigma-Aldrich, St. Louis, MO). For the expression of the wild-type and mutated AAT, EPO, and sFγRIIIa in mammalian cells, the corresponding genes (purchased from FASMAC Co., Ltd., Atsuki, Japan) were inserted into the p3XFLAG-CMV-9 Expression Vector (Sigma-Aldrich). […]
The secreted levels of FVIII and FV antigens in the culture medium were determined with an sandwich enzyme-linked immunosorbent assay (ELISA) method using the VisuLize FVIII Antigen Kit (Affinity Biologicals Inc., Ancaster, ON) and the Asssay Max™ Human Factor V ELISA Kit (ASSAYPRO, MO), respectively. The secreted levels of AAT and EPO antigens in the culture medium were determined with an ELASA method using the anti-AAT antibody (Agilent, Santa Clara, CA) and anti-Flag M2 antibody (Sigma-Aldrich), respectively.

HCT116 cells = test: RUSH imaging of ER-to-Golgi transport; assay type: cell-based; details: for colocalized fraction with GM130 (Manders' M1), average: mScarlet-I fusion
Experimental: For live-cell imaging using RUSH system, li-Str_ST-SBP-mCherry (Plasmid #65269) was purchased from Addgene. We replaced mCherry with mScarlet-I-EPO or mScarlet-I-EPO-motif (SbfI/XbaI). HCT116 cells were plated on 35-mm glass-based dishes, which were coated with poly-L-lysine, and grown overnight. RUSH plasmids to express mScarlet-I-EPO and mScarlet-I-EPO-motif were individually transfected into the cells using Expifectamine^TM 293 reagent. After 24 h, the medium was changed into DMEM including 40 μM (+)-biotin for starting the translocation form ER. […] After blocking with Blocking One solution (Nacalai Tesque), the cells were incubated with polyclonal rabbit anti-GM130 (Proteintech, 11308-1-AP, dilution 1 :1000) and then with Alexa Fluor 488-conjugated anti-rabbit IgG antibody [Jackson ImmunoResearch (West Grove, PA), 711-545-152, dilution 1:1000] in 20 mM Tris-HCl (pH 7.6) containing 150 mM NaCl and 0.05% Tween-20. Cell images were recorded using a fluorescence microscope BZ-X700 and BZ-H3XF/Sectioning Module (Keyence Co., Osaka, Japan) and analyzed by Fiji[31]. For quantification of co-localization of EPO proteins and GM130, the images were thresholded by the Otsu method and analyzed by calculating Manders’ coefficient (M1) with Coloc2 plugin[32]. Because of abnormal distribution of the imaging data based on Shapiro–Wilk normality test, nonparametric statistics were used for the analysis. All statistical analysis was performed in the R statistical environment version 3.5.3[33].

EPO: recombinant Flag-tagged erythropoietin without motif (Fig. 5 prints EPO for mScarlet-I-EPO)
EPO secretion level (Figure 4D), average (ΔERGIC-53 HCT116 cells; average, n = 3, EPO in wild type = 1): 1.297
EPO secretion level (Figure 4D) (ΔERGIC-53 HCT116 cells; replicate 1): 1.122
EPO secretion level (Figure 4D) (ΔERGIC-53 HCT116 cells; replicate 2): 1.395
EPO secretion level (Figure 4D) (ΔERGIC-53 HCT116 cells; replicate 3): 1.373
colocalized fraction with GM130 (Manders' M1) (HCT116 cells; 0 min, Figure No. 1): 0.028
colocalized fraction with GM130 (Manders' M1) (HCT116 cells; 0 min, Figure No. 2): 0.024
colocalized fraction with GM130 (Manders' M1) (HCT116 cells; 0 min, Figure No. 3): 0.051
colocalized fraction with GM130 (Manders' M1) (HCT116 cells; 0 min, Figure No. 4): 0.098
colocalized fraction with GM130 (Manders' M1) (HCT116 cells; 0 min, Figure No. 5): 0.14
colocalized fraction with GM130 (Manders' M1) (HCT116 cells; 0 min, Figure No. 6): 0.098
colocalized fraction with GM130 (Manders' M1) (HCT116 cells; 0 min, Figure No. 7): 0.128
colocalized fraction with GM130 (Manders' M1) (HCT116 cells; 0 min, Figure No. 8): 0.018
colocalized fraction with GM130 (Manders' M1) (HCT116 cells; 0 min, Figure No. 9): 0.026
colocalized fraction with GM130 (Manders' M1), average (HCT116 cells; 0 min after biotin (40 μM), n = 9 cells): 0.06789
colocalized fraction with GM130 (Manders' M1) (HCT116 cells; 30 min, Figure No. 1): 0.115
colocalized fraction with GM130 (Manders' M1) (HCT116 cells; 30 min, Figure No. 2): 0.302
colocalized fraction with GM130 (Manders' M1) (HCT116 cells; 30 min, Figure No. 3): 0.628
colocalized fraction with GM130 (Manders' M1) (HCT116 cells; 30 min, Figure No. 4): 0.57
colocalized fraction with GM130 (Manders' M1) (HCT116 cells; 30 min, Figure No. 5): 0.472
colocalized fraction with GM130 (Manders' M1) (HCT116 cells; 30 min, Figure No. 6): 0.508
colocalized fraction with GM130 (Manders' M1) (HCT116 cells; 30 min, Figure No. 7): 0.39
colocalized fraction with GM130 (Manders' M1) (HCT116 cells; 30 min, Figure No. 8): 0.267
colocalized fraction with GM130 (Manders' M1) (HCT116 cells; 30 min, Figure No. 9): 0.53
colocalized fraction with GM130 (Manders' M1) (HCT116 cells; 30 min, Figure No. 10): 0.285
colocalized fraction with GM130 (Manders' M1), average (HCT116 cells; 30 min after biotin (40 μM), n = 10 (EPO) or 13 (EPO-motif) cells): 0.4067
ER-to-Golgi trafficking (HCT116 cells; 30 min after biotin addition): localized in the Golgi to varying extents depending on the C-terminal motif
localization in RUSH imaging (HCT116 cells; before addition of biotin (time 0)): typical ER localization

— article PMC7069976, “Improved secretion of glycoproteins using an N-glycan-restricted passport sequence tag recognized by cargo receptor” (Nature Communications, 2020)
